Like-named read-outs stand apart in the source and are kept apart here.
Columns and labels:
MIApaca/FG2 cells = test: EC50 assay of small molecule activated γδ T cells to kill MIApaca/FG2 tumor cells (10-fold dilution protocol); format: cell-based
Method: γδT cells and MIApaca/FG2 tumor cell lines were expanded and cultured in vitro. The MIApaca/FG2 cells were digested, and the cells were counted and resuspended in DMEM complete medium, the density of the cell suspension was adjusted and added into a 96-well plate at 5×10^3 cells/50 μL/well for overnight incubation. On the next day, the test compound and the control compound were diluted at a 10-fold ratio with γδT complete medium. 50 μL of diluted compound was transferred to the corresponding wells which had been plated with tumor cells, and the actual detection concentration was in the range of 10^−12-10^−5 M. γδT cells were resuspended in γδT complete medium, and the density of the cell suspension was adjusted according to the effector-target ratio of E:T=2:1, and then the cells were added to the corresponding wells at 1×10^4 cells/50 μL/well. After co-culture at 37° C., 5% CO2 for 20 hours, the cells were centrifuged. The supernatant was removed, and 50 μL of cell lysate containing luciferin substrate was added to each well. After standing for 18 minutes in the dark, the signal of chemiluminescence was detected. The EC50 value was calculated by four-parameter fitting, with the corresponding signal value of the well with only tumor cells as the minimum killing value, and the corresponding signal value of the well without tumor cells as the maximum killing value. The killing data of MIApaca/FG2 cells is as follows: […]

[1] = Stability experiment of compounds in human liver microsomes; format: in vitro ADME; conditions: NADPH, 37° C., read-out: T1/2 in human liver microsomes
Method: Compounds were prepared as a 10 mM stock solution with DMSO and then diluted with 80% acetonitrile-water to a 100 μM working solution for later use. Human liver microsomes were obtained from BIOIVT.
(1) The liver microsomes taken out from the refrigerator were placed in a 37° C. water bath thermostatic oscillator, pre-incubated for 5 min, and thawed for later use.
(2) A certain amount of NADPH was weighed and added to an appropriate amount of magnesium chloride solution to dissolve into a 2 mM solution for later use.
(3) A mixed solution of the warm incubation system (containing no β-NADPH) was prepared according to the proportions in the “composition of the experimental warm incubation system” above and dispensed at 165 μL/tubes (45 μL/tube for the negative control group and 120 μL/tube for the positive control group).
(4) For the sample at 0 min: 200 μL of internal standard working precipitant was added and then 30 μL of NADPH solution was added.
(5) For other samples: 135 μL NADPH solution was added to initiate the reaction (45 μL magnesium chloride solution was added for the negative control group), and incubated in a 37° C. water bath for 5, 15, 30, and 60 min (incubated in a 37° C. water bath for 60 min for the negative control group), then 60 μL was sampled and added to 200 µL of precipitant containing internal standard.
(6) For the positive control group: 90 L NADPH solution was added to initiate the reaction, and incubated in a 37° C. water bath for 5, 15 min, then 60 μL was sampled and added to 200 μL of precipitant containing internal standard.
(7) For neat sample: 297 μL of water was pipetted into a tube, 1000 μL of internal standard working solution was added, and 3 μL of test compound working solution was added.
(8) All samples were vortexed and centrifuged.
(9) 150 μL of the supernatant was sampled and added to 150 μL of water, mixed uniformly by vortex, and analyzed by LC-MS/MS. The half-life stability data of human liver microsomes is as follows: […]

[2] = Pharmacokinetic test in cynomolgus monkeys; format: in vivo; conditions: IV 2 mg/kg
Method: The control compound 2 and compound 19 were formulated into 1 mg/mL solution in 10% DMSO/90% PBS. Cynomolgus monkeys were obtained from Suzhou Leo Bio Technology Co., Ltd. The control compound 2 and compound 19 were administered intravenously at 2 mg/kg, respectively. The blood collected before administration was recorded as zero point. Then 1 mL of blood was collected at eight time points: 0.083, 0.15, 0.5, 1.0 2.0, 4.0, 8.0, and 24.0, respectively. 1 mL of the collected whole blood was placed in a labeled EDTA-2K anticoagulant tube. After gently inverting up and down to fully mix the anticoagulant (EDTA-2K) with the blood, it was immediately placed in wet ice and centrifuged within 30 minutes to separate the plasma. The centrifugation conditions were set to 4° C., 2200 g, and 6 min. The plasma separated after centrifugation was placed in a labeled EP tube, and the content of compound 19 and control compound 2 in the plasma samples at different time points were detected and analyzed. There were 3 male cynomolgus monkeys in each group.

[3] = Binding rate test of compounds and human plasma protein (equilibrium dialysis); format: in vitro ADME; conditions: human plasma, equilibrium dialysis 6 hours, 37° C.
Method: (1) The dry dialysis membrane was soaked with ultrapure water for 20 min or more than 20 min, then soaked with 20% ethanol for 30 min to 1 h, and the membrane was rinsed with ultrapure water 2-3 times. Finally, the membrane was soaked with ultrapure water for 20 minutes for later use.
(2) The frozen plasma was thawed in a water bath at 37° C.
(3) The test compound was diluted into plasma preheated to 37° C. at a final concentration of 1 μM, and the final concentration of the control compound warfarin in plasma was 2 μM.
(4) The pre-treated dialysis membrane was assembled into the dialysis plate according to the specification of the product, and 120 μL of the receiving solution (100 mM phosphate buffer solution added 0.002% Tween 80) was added to one side of the permeable membrane in each dialysis well.
(5) 20 μL of each of the final solutions of the test compound and the control compound were added into a 96-well sample plate in duplicate, and the TO sample was obtained, which was stored in a refrigerator at −20° C. Another 20 μL of the above final solution was added to the other side of the membrane in the dialysis device in duplicate, and incubated at 37° C. by shaking at constant temperature for 6 hours.
(6) After 6 hours of incubation, 20 L of each of the dialyzed receiving solution and the administered plasma were weighed to obtain sample B and sample A in duplicate. The corresponding volume of corresponding blank plasma or receiving solution was added to sample B and sample A, respectively, so that the volume ratio of plasma to buffer in each sample well was 1:1. 300 μL of acetonitrile solution containing internal standard was added to all sample wells, and centrifuged after mixed uniformly.
(7) 200 μL of ultrapure water (150 μL for the control group) was added into the corresponding sample wells of the 96-well sample plate, and 300 μL of the supernatant (150 μL for the control group) was added into the sample well; the samples were analyzed after mixed uniformly. The free percentage and recovery rate of the compound in plasma were calculated using the following formula: Plasma protein binding rate (%)=1−free percentage, wherein free percentage (%)=CB/CA
wherein CB is the concentration of the compound in the receiving solution after equilibrium dialysis, CA is the concentration of the compound in the drug-dosed plasma after equilibrium dialysis, and CT0 is the initial concentration of the compound in plasma.

[4] = Stability experiment of compounds in human whole blood; format: in vitro ADME; conditions: whole blood (sodium heparin), 37° C., 0-4 h, read-out: T1/2 in human whole blood (converted)
Method: • (1) An appropriate amount of blank whole blood was added into an EP tube containing sodium heparin, then added the working solution of the test substance to a final concentration of 1 μM, and mixed by vortex; • (2) The sample was placed in a water bath at 37° C. with two parallel experiments; for one experiment, the time points were 0 h, 0.5 h, 1 h, 2 h, and 4 h; another experiment was performed to obtain the absolute zero point, which was compared with the 0 h point. • (3) An appropriate amount of sample was taken out from the incubation system, to which 300 μL of internal standard precipitant was added for protein precipitation; (4) all samples were centrifuged at 6° C. for 10 min (15700×g). • (5) 150 μL of the supernatant was taken out, to which 150 μL of water was added, which was mixed by vortex, and analyzed by LC-MS/MS. The stability data of compounds in human whole blood is as follows: […]

[5] = Homo sapiens, MIA PaCa-2, γδT cells + MIApaca/FG2, E:T=2:1, co-culture 20 hours, 10^-12-10^-5 M, read-out: MIApaca killing (EC50)
[6] = read-out: MIApaca killing (EC50), γδT cells + MIApaca/FG2, E:T=2:1, co-culture 20 hours, 10^-12-10^-5 M

| SMILES | EC50 (MIApaca/FG2 cells; [5]) | EC50 (MIApaca/FG2 cells; [6]) | further results |
| --- | --- | --- | --- |
| C[C@H](NP(=O)(OC/C=C(/CO)C(F)(F)F)Oc1ccccc1)C(=O)OCC1CC1 (stereo partly drawn) [Compound 9, Cyclopropylmethyl ((phenoxy)(((Z)-4,4,4-trifluoro-3-(hydroxymethyl)but-2-en-1-yl)oxy)phosphoryl)-L-alaninate] | 9.9 nM | – | – |
| C/C(=C\CCP(=O)(N[C@@H](C)C(=O)OC1CCCC1)Oc1ccccc1)CO (stereo partly drawn) [Compound 6, Cyclopentyl (((E)-5-hydroxy-4-methylpent-3-en-1-yl)(phenoxy)phosphoryl)-L-alaninate] | – | 0.098 nM | – |
| CC/C(=C\CCP(=O)(N[C@@H](C)C(=O)OC(C)C)Oc1ccccc1)CO (stereo partly drawn) [Compound 4, Isopropyl (((E)-5-hydroxy-4-ethylpent-3-en-1-yl)(phenoxy)phosphoryl)-L-alaninate] | – | 174 nM | – |
| C[C@H](NP(=O)(OC/C=C(/CO)C(F)(F)F)Oc1ccccc1)C(=O)OC1CCCC1 (stereo partly drawn) [Compound 11, Cyclopentyl ((phenoxy)(((Z)-4,4,4-trifluoro-3-(hydroxymethyl)but-2-en-1-yl)oxy)phosphoryl)-L-alaninate] | 35.4 nM | – | – |
| CCC(CC)COC(=O)[C@H](C)NP(=O)(CC/C=C(\C)CO)Oc1ccccc1 (stereo partly drawn) [Compound 2, 2-Ethylbutyl (((E)-5-hydroxy-4-methylpent-3-en-1-yl)(phenoxy)phosphoryl)-L-alaninate] | – | 0.19 nM | – |
| CCC(CC)COC(=O)[C@H](C)NP(=O)(OC/C=C(/CO)C(F)(F)F)Oc1ccccc1 (stereo partly drawn) [Compound 10, 2-Ethylbutyl ((phenoxy)(((Z)-4,4,4-trifluoro-3-(hydroxymethyl)but-2-en-1-yl)oxy)phosphoryl)-L-alaninate] | 12.8 nM | – | – |
| CC(C)OC(=O)[C@H](C)NP(=O)(CCC=C(CO)CO)Oc1ccccc1 (stereo partly drawn) [Compound 1, Isopropyl ((5-hydroxy-4-(hydroxymethyl)pent-3-en-1-yl)(phenoxy)phosphoryl)-L-alaninate] | – | 57.1 nM | – |
| CC(C)OC(=O)[C@H](C)NP(=O)(OC/C=C(/CO)C(F)(F)F)Oc1cccc2ccccc12 (stereo partly drawn) [Compound 14, isopropyl ((naphthyloxy)(((Z)-4,4,4-trifluoro-3-(hydroxymethyl)but-2-en-1-yl)oxy)phosphoryl)-L-alaninate] | 67 nM | – | – |
| C/C(=C\COP(=O)(O)OP(=O)(O)O)CO [HMBPP control, reference compound] | – | – | EC50 (MIApaca/FG2 cells; γδT cells + MIApaca/FG2, E:T=2:1, co-culture 20 hours, 10^-12-10^-5 M, read-out: MIApaca killing (EC50)): 2.1 nM |
| CC(C)OC(=O)[C@H](C)NP(=O)(CC/C=C/CO)Oc1ccccc1 (stereo partly drawn) [Compound 5, Isopropyl (((E)-5-hydroxypent-3-en-1-yl)(phenoxy)phosphoryl)-L-alaninate] | – | 11.6 nM | – |
| CC(C)OC(=O)[C@H](C)NP(=O)(OC/C=C(/CO)C(F)(F)F)Oc1ccccc1 (stereo partly drawn) [Compound 3, Isopropyl ((phenoxy)(((Z)-4,4,4-trifluoro-3-(hydroxymethyl)but-2-en-1-yl)oxy)phosphoryl)-L-alaninate] | 8 nM | – | – |
| C[C@H](NP(=O)(OC/C=C(/CO)C(F)(F)F)Oc1ccccc1)C(=O)O[C@H]1CCOC1 (stereo partly drawn) [Compound 12, (S)-tetrahydrofuran-3-yl ((phenoxy)(((Z)-4,4,4-trifluoro-3-(hydroxymethyl)but-2-en-1-yl)oxy)phosphoryl)-L-alaninate] | 5.1 nM | – | – |
| C/C(=C\CCP(=O)(N[C@@H](C)C(=O)OCc1ccccc1)Oc1ccccc1)CO (some centres unmarked) [Control compound 2, reference compound] | – | – | half-life [1]: 1.4 min; AUC0-t/AUC0-inf ([2]; average): 0.974; concentration at 5 min ([2]; male, cynomolgus monkey, plasma, 5 min, read-out: Plasma concentration of the unchanged drug): 0.299 µg/mL; concentration at 9 min ([2]; male, cynomolgus monkey, plasma, 9 min, read-out: Plasma concentration of the unchanged drug): 0.049 µg/mL; concentration at 30 min ([2]; male, cynomolgus monkey, plasma, 30 min, read-out: Plasma concentration of the unchanged drug): 0.001 µg/mL; concentration at 1 h ([2]; male, cynomolgus monkey, plasma, 1 h, read-out: Plasma concentration of the unchanged drug): 0.003 µg/mL; AUC(0-t) ([2]; male, cynomolgus monkey, plasma, average, read-out: AUC0-t (AUClast)): 0.194 µg·h/mL; clearance ([2]; male, cynomolgus monkey, plasma, average, read-out: Cl (Cl_obs)): 25.1 L/h/kg; fraction unbound at 6 h, 1 μM [3]: 0.027; half-life at 1 μM [4]: 2 h |
| C[C@H](NP(=O)(OC/C=C(/CO)C(F)(F)F)Oc1ccccc1)C(=O)O[C@@H]1CCOC1 (some centres unmarked) [Compound 13] | 6.6 nM | – | – |

— US20260207637A1, “MODULATOR FOR PROMOTING BINDING OF BUTYROPHILIN 3A1/2A1” (priority 2023, published 2026)
